Experimental data published in patent EP0201999A1 (priority 1985, dated 1986).
Marks after values point to notes of the source that are not given here.

How the values were obtained:
Assay type in all cases: in vivo
PUCCINIA RECONDITA = assay: Foliar fungal disease test on plants (Example 29), Puccinia recondita on wheat; conditions: 100 ppm a.i. foliar spray plus root drench approx. 40 ppm ai./dry soil, mostly protectant, applied 1-2 days before inoculation
Description: (§1) The compounds were tested against a variety of mainly foliar fungal diseases of plants. The techniques employed were as follows.
(§2) For all tests the plants were grown in John Innes Potting Compost (No. 1 or 2) in 4 cm diameter minipots. The test compounds were formulated either by bead milling with aqueous Dispersol T or as a solution in acetone or acetone/ethanol which was diluted to the required concentration immediately before use. The solutions or suspensions (100 ppm ia.) were sprayed on the foliage and applied to the roots of the plant via the soil. The sprays were applied to maximum retention and the root drenches to a final concentration equivalent to approximately 40 ppm ai./dry soil. "TWEEN" 20, to give a final concentration of 0.05%, was added when the sprays were applied to cereals. (a.i. means "active ingredient"). The word "TWEEN" is a Trade Mark.
(§3) Most were protectant tests where the compound was applied to the soil and roots and to the foliage one or two days before the plant was inoculated with the pathogen. The foliar pathogens were applied by spraying as spore suspensions onto the leaves of the test plants.
(§4) After inoculation, the plants were placed in an appropriate environment to allow infection to proceed and then incubated until the disease was ready for assessment. The period between inoculation and assessment varied from four to fourteen days according to the disease and the environment.
(§5) Disease control was recorded using the following grading system : • 4 = no disease • 3 = trace to 5% of disease on untreated plants • 2 = 6-25% of disease on untreated plants • 1 = 26-59% of disease on untreated plants • 0 = 60-100% of disease on untreated plants

VENTURIA INAEQUALIS = assay: Foliar fungal disease test on plants (Example 29), Venturia inaequalis on apples; conditions: 100 ppm a.i. foliar spray plus root drench approx. 40 ppm ai./dry soil, mostly protectant, applied 1-2 days before inoculation
Description: as §1, §2, §3, §4, §5

P[…] = conditions: 100 ppm a.i. foliar spray plus root drench approx. 40 ppm ai./dry soil, mostly protectant, applied 1-2 days before inoculation
CERCOSPORA ARACHIDICOLA = assay: Foliar fungal disease test on plants (Example 29), Cercospora arachidicola on peanuts; conditions: 100 ppm a.i. foliar spray plus root drench approx. 40 ppm ai./dry soil, mostly protectant, applied 1-2 days before inoculation
Description: as §1, §2, §3, §4, §5

[…] [1] = Foliar fungal disease test on plants (Example 29), […] on vines; conditions: 100 ppm a.i. foliar spray plus root drench approx. 40 ppm ai./dry soil, mostly protectant, applied 1-2 days before inoculation
Description: as §1, §2, §3, §4, §5

[…] [2] = Root drench test against Plasmopara viticola on vines (Example 30); conditions: vines (variety ohanez), 25 ppm, approx. 10 ppm compound/dry soil, inoculated after 2 days, assessed six days later
Description: This Example illustrates the activity of the invention compounds against the disease Plasmopara viticola on vines.
For the test on Plasmopara viticola the vine plants (variety ohanez) were grown in John Innes Potting Compost (No. 1 or 2) in 4 cm diameter minipots. The test compounds were formulated either by bead milling with aqueous Dispersol T or as a solution in acetone or acetone/ ethanol which was diluted to a concentration of 25 ppm of the compound immediately before use. The solutions or suspensions were applied as a root drench to a final concentration equivalent to approximately 10 ppm compound/dry soil. After 2 days the plants were inoculated with the pathogen, and then placed in a humidity cabinet to allow infection to proceed, and the assessment carried out six days later.
The disease grading system was as for Example 29.

[…] [3] = as above; conditions: vines (variety ohanez), test concentration 30 ppm (marked *), inoculated after 2 days, assessed six days later
[4] = tested on: Phytophthora infestans lycopersicii; conditions: tomato plants (variety Outdoor Girl); 100 ppm ai.; inoculated after 1 day; 24 hours humidity cabinet, assessed after a further 2 days

Compound | Disease control PUCCINIA RECONDITA (WHEAT) (PUCCINIA RECONDITA) | Disease control VENTURIA INAEQUALIS (APPLES) (VENTURIA INAEQUALIS) | Disease control P[…] (RICE) (P[…]) | Disease control CERCOSPORA ARACHIDICOLA (PEANUTS) (CERCOSPORA ARACHIDICOLA) | Disease control […] (VINES) ([…] [1]) | Disease control […] (VINES) ([…] [2]) | Disease control […] (VINES) ([…] [3]) | Disease control Phytophthora infestans (tomatoes) [4]
C#CCNC(=O)C(C#N)=NOC [Compound 1, 2-cyano-2-methoxyimino-N-propargylacetamide] | 4 | 2 (2 = 6-25% of disease on untreated plants) | 3 (3 = trace to 5% of disease on untreated plants) | 2 (2 = 6-25% of disease on untreated plants) | 4 | 4 |  | 
CON=C(C#N)C(=O)NCC(I)=CI [Compound 7, 2-cyano-2-methoxyimino-N-2,3-diiodo-allylacetamide] | 0 (0 = 60-100% of disease on untreated plants) | 0 (0 = 60-100% of disease on untreated plants) | 2 (2 = 6-25% of disease on untreated plants) | 0 (0 = 60-100% of disease on untreated plants) | 4 |  | 2* (2 = 6-25% of disease on untreated plants) | 
C#CCN(CC#C)C(=O)C(C#N)=NOC [Compound 9, 2-cyano-2-methoxyimino-N,N-dipropargyl-acetamide] | 2 (2 = 6-25% of disease on untreated plants) | 0 (0 = 60-100% of disease on untreated plants) | 2 (2 = 6-25% of disease on untreated plants) | 0 (0 = 60-100% of disease on untreated plants) | 4 |  | 3* (3 = trace to 5% of disease on untreated plants) | 
C#CCN(CC=C)C(=O)C(C#N)=NOC [Compound 10, 2-cyano-2-methoxyimino-N-(propargyl)-N-allylacetamide] | 0 (0 = 60-100% of disease on untreated plants) | 0 (0 = 60-100% of disease on untreated plants) | 0 (0 = 60-100% of disease on untreated plants) | 2 (2 = 6-25% of disease on untreated plants) | 3 (3 = trace to 5% of disease on untreated plants) | 2 (2 = 6-25% of disease on untreated plants) |  | 
CON=C(C#N)C(=O)NCC#N [Compound 20, 2-cyano-2-methoxyimino-N-(cyanomethyl)-acetamide] | 3 (3 = trace to 5% of disease on untreated plants) | 3 (3 = trace to 5% of disease on untreated plants) | 1 (1 = 26-59% of disease on untreated plants) | 2 (2 = 6-25% of disease on untreated plants) | 4 | 4 |  | 2 (2 = 6-25% of disease on untreated plants)
CCON=C(C#N)C(=O)NCC#N [Compound 22, 2-cyano-2-ethoxyimino-N-(cyanomethyl)-acetamide] | 3 (3 = trace to 5% of disease on untreated plants) | 4 | 3 (3 = trace to 5% of disease on untreated plants) | 3 (3 = trace to 5% of disease on untreated plants) | 4 | 4 |  | 
CON=C(C#N)C(=O)NCC(=O)OC [Compound 24, methoxycarbonylmethyl-(2-cyano-2-methoxyimino)-acetamide] | 1 (1 = 26-59% of disease on untreated plants) | 0 (0 = 60-100% of disease on untreated plants) | 0 (0 = 60-100% of disease on untreated plants) | 2 (2 = 6-25% of disease on untreated plants) | 4 | 0 (0 = 60-100% of disease on untreated plants) |  | 
CON=C(C#N)C(=O)Nc1nccs1 [Compound 25, 2-cyano-2-methoxyimino-N-2-thiazolylacetamide] | 3 (3 = trace to 5% of disease on untreated plants) | 2 (2 = 6-25% of disease on untreated plants) | 0 (0 = 60-100% of disease on untreated plants) | 0 (0 = 60-100% of disease on untreated plants) | 4 | 0 (0 = 60-100% of disease on untreated plants) |  | 2 (2 = 6-25% of disease on untreated plants)
N#CCNC(=O)C(C#N)=NO [Compound 31, 2-cyano-2-oximino-N-(cyanomethyl)-acetamide] | 0 (0 = 60-100% of disease on untreated plants) | 0 (0 = 60-100% of disease on untreated plants) | 2 (2 = 6-25% of disease on untreated plants) | 0 (0 = 60-100% of disease on untreated plants) | 0 (0 = 60-100% of disease on untreated plants) |  |  | 
CON=C(C#N)C(=O)NC(C)C#N (stereo not drawn) [Compound 34, 2-cyano-2-methoxyimino-N-(α-cyanoethyl)-acetamide] | 4 | 0 (0 = 60-100% of disease on untreated plants) | 0 (0 = 60-100% of disease on untreated plants) | 0 (0 = 60-100% of disease on untreated plants) | 4 | 4 |  | 3 (3 = trace to 5% of disease on untreated plants)
CON=C(C#N)C(=O)NCC(N)=S [Compound 54, 2-cyano-2-methoxyimino-N-(thio-carbamoylmethyl)-acetamide] | 3 (3 = trace to 5% of disease on untreated plants) | 0 (0 = 60-100% of disease on untreated plants) | 0 (0 = 60-100% of disease on untreated plants) | 3 (3 = trace to 5% of disease on untreated plants) | 4 | 4 |  | 3 (3 = trace to 5% of disease on untreated plants)
CON=C(C#N)C(=O)NC(C#N)c1ccco1 (stereo not drawn) [Compound 63, 2-cyano-2-methoxyimino-N-[(2-furyl)-α-cyano-methyl]-acetamide] | 2 (2 = 6-25% of disease on untreated plants) | 0 (0 = 60-100% of disease on untreated plants) | 0 (0 = 60-100% of disease on untreated plants) | 0 (0 = 60-100% of disease on untreated plants) | 4 | 4 |  | 
